Test results as given in patent US20160199463A1, “HDAC2 DEFENDS VASCULAR ENDOTHELIUM FROM INJURY” (The Johns Hopkins University, priority 2014, published 2016).
pIC50: −log10 of the molar value.

Legend:
[1] = test system: calcium-insensitive eNOS in HEK 293 cells; test: NO radicals in medium of HEK 293 cells expressing calcium-insensitive eNOS (DCFH-DiOxyQ assay); assay type: cell-based, human; conditions: TSA alone
Protocol: (§1) Nitric Oxide levels in HAEC were determined using DAF-DA as per manufacture instructions (Life Sciences). Briefly, cells were loaded with DAF-DA (5 μM) for 20 min and washed 3 times with PBS and incubated for another 30 min in phenol-free media. Fluorescence was determined using a Nikon TE-200 epifluorescence microscope. Images were captured with a Rolera EMC2 camera (Q-Imaging, BC, Canada) with Velocity software (PerkinElmer, Lexington, Mass.). NO production in the cell culture media was also determined by measuring Nitrite levels using a Siever's NO analyzer. NO radicals were measured in cell media collected after 24 hours of treatment using the Oxiselect assay (Cell Biolabs, San Diego, Calif.).
Next, the functional consequences of HDAC inhibition on downstream endothelial cell signaling were evaluated. Because eNOS-derived NO plays a central role in endothelial function, eNOS activity was assessed by measuring NO production using 3 different assays. […] HEK 293 cells lack native eNOS expression, but do produce abundant Arg2. Cell medium from 293 cells transfected with a control plasmid (LacZ) was used as a control background signal that was subtracted from all the groups containing calcium-insensitive endothelial nitric oxide synthase.

eNOS = eNOS expression in HAECs (immunoblot); assay type: cell-based, human; conditions: 1 μmol/L, 18 hours
Protocol: (§2) After 48 hrs of HAEC cells transfection, cells were lysed in ice cold RIPA lysis buffer consisting of 20 mM Tris-HCl at pH 7.5, 150 mM NaCl, 1 mM EDTA, 1 mM EGTA, 1% NP40, 1% sodium deoxycholate, 1 mM Na3VO4, 2.5 mM sodium pyrophosphate, 1 mM 3-glycerophosphate, 1 μg/mL leupeptin, and a 1:1000 diluted protease inhibitor cocktail (Sigma). For immunoprecipitation studies, whole cell lysate lysates were centrifuged at 14,000×g and supernatants were precleared by incubation with Protein A/G-agarose beads for 2 h at 4° C. with rocking. Agarose beads were then pelleted by centrifugation at 1,000×g. FLAG-Arg2 in precleared lysates were immunoprecipitated by incubation overnight at 4° C. with rocking following addition of anti-FLAG antibody (10 μl). Immune complexes were eluted in 2×SDS sample buffer by boiling for 5 minutes before loading into SDS-PAGE. Western blotting analysis was performed by transferring the SDS gel onto a PVDF membrane and visualized using secondary antibodies conjugated to alkaline phosphatases.

HDAC = conditions: cited from earlier work
Arg2 ubiquitination = Arg2 ubiquitination in HAECs (immunoprecipitation); assay type: cell-based, human; conditions: preincubation with TSA; MG132 10 μmol/L in all groups
Protocol: as §2
Posttranslational modification by ubiquitin subjects proteins to proteasomal degradation and, therefore, affects their abundance. Because both acetylation and ubiquitination target lysine residues of proteins, there is a significant cross talk between these 2 pathways (Yang et al., 2008 Mol Cell, 31:449-461). […]

Arg2 = Arg2 protein expression in HAECs (Western blot); assay type: cell-based, human
Protocol: as §2

Arg2 mRNA = Arg2 mRNA in isolated mice aorta (real-time PCR); assay type: cell-based, mouse; conditions: TSA 200 nmol/L, 18 hours
Protocol: Total RNA was extracted from segments of mice aortas and HAEC using Trizol and PureLink (Invitrogen). RNA was then reverse transcribed with oligo dT primers to obtain cDNA and quantitative real time PCR (Applied Biosystems) was performed using SYBR Green Supermix mix (Applied Biosystems) whereas semiquantitative RTPCR was performed using conventional Biorad PCR machine and the following primer sets:
Real Time PCR data are expressed as “fold change”, which is calculated as 2-ΔΔCt.

[2] = test system: aortic rings of wild-type mice; test: Force tension (wire) myography, vascular relaxation of isolated wild-type mouse aortic rings; assay type: cell-based
Protocol: Mouse aorta was isolated and cleaned in ice-cold Krebs-Ringer-bicarbonate solution containing the following (in mM): 118.3 NaCl, 4.7 KCl, 1.6 CaCl2, 1.2 KH2 PO4, 25 NaHCO3, 1.2 MgSO4, and 11.1 dextrose. The aorta was immersed in a bath filled with constantly oxygenated Krebs buffer at 37° C. Equal size thoracic aortic rings (2 mm) were mounted using a microscope, ensuring no damage to the smooth muscle or endothelium. One end of the aortic rings was connected to a transducer, and the other to a micromanipulator. Aorta was passively stretched to an optimal resting tension using the micromanipulator, after which a dose of 60 mM KCl was administered, and repeated after a wash with Krebs buffer. After these washes, all vessels were allowed to equilibrate for 20-30 min in the presence of indomethacin (3 μM). Phenylephrine (1 μM) was administered to induce vasoconstriction. A dosedependent response (1 nM to 10 μM), with the muscarinic agonist, ACH or nitric oxide donor, SNP, was then performed as necessary. The responses were repeated in the presence of inhibitors. Relaxation responses were calculated as a percentage of tension following pre-constriction. Sigmoidal dose-response curves were fitted to data with the minimum constrained to 0. Two to four rings were isolated from each animal and the number of animals in each group (n) was 6.

[3] = test system: arginase activity in mice aortas; test: Arginase activity in isolated segments of mice aorta; assay type: cell-based, mouse; conditions: TSA 200 nmol/L
NO production in HAECs = test: Nitric oxide production in HAECs (DAF-DA fluorescence, Siever's NO analyzer); assay type: cell-based, human; conditions: TSA 1 μmol/L
Protocol: as §1

## CC(/C=C/C(=O)NO)=C\[C@@H](C)C(=O)c1ccc(N(C)C)cc1 [TSA, trichostatin A]
[1]
  NO production: decreased
eNOS
  eNOS expression: negligible effect
HDAC
  pIC50: 8.74
Arg2 ubiquitination
  ubiquitination of Arg2: no effects
Arg2; 1 μmol/L, 18 hours
  Arg2 expression, broad-spectrum HDAC inhibitors: upregulated
Arg2; 18 hours
  concentration of maximum effect on Arg2 protein: 1 µmol/L
Arg2; TSA 0, 0.1, 0.3, and 1 μmol/L, 18 hours
  Arg2 protein expression, dose dependence: dose-dependent fashion
Arg2; TSA 400 nmol/L, 18 hours
  Arg2 expression: increased
Arg2; TSA 1 μmol/L
  time at which increase in Arg2 protein expression is observed: 8 h
Arg2 mRNA
  Arg2 mRNA: substantially upregulated
[2]; TSA 200 nmol/L or MGCD0103 1 μmol/L, 18 hours
  SNP-mediated (endothelium-independent) vasorelaxation versus vehicle-only control: no significant difference
[2]; TSA 200 nmol/L, 18 hours preincubation, n=6
  Emax acetylcholine-mediated (endothelium-dependent) vasorelaxation: 31.24±7.8%
[3]
  arginase activity: robust increase
NO production in HAECs
  NO production: significantly decreased
